The data set is described as follows: second pKa from 31P shift. Type of data set: physicochemical. From the text: This means that both the pPye and pHis have the same charge state at physiological pH. Since the pKa2 of pHis is […], both of the phosphate group oxygen atoms in pHis will be depronated. For pPye, the doubly deprotonated state will be favored at physiological pH (pH 7.4), well mimicking pHis.

On to `NCCn1cc(P(=O)(O)O)cn1` [pPye], for which the pKa (as a rule, the negative logarithm of the acid dissociation constant) was ~6.7.

The record behind these values is patent publication US12168671B2, “Phosphohistidine mimetics and antibodies to same” (The Trustees of Princeton University, priority 2013, dated 2024).
